These results are taken from publication PMC10643420, “A glutamate-gated chloride channel as the mite-specific target-site of dicofol and other diphenylcarbinol acaricides” (Communications Biology, 2023).

What all share (format): cell-based
In test [1] the target is T1, TuGluCl3 (glutamate-gated chloride channel 3) (Tetranychus urticae, UniProt T1KFH0, G326E).
T1 construct: gene 107363680; homomeric TuGluCl3 G326E receptor expressed in Xenopus laevis oocytes
Description: two-electrode voltage clamp in Xenopus oocytes at […] (natural agonist). (Two-electrode voltage clamp is typically applied to oocytes expressing channels or transporters.)

In test [2] the target is T2, TuGluCl3 (glutamate-gated chloride channel 3) (Tetranychus urticae, UniProt T1KFH0).
T2 construct: gene 107363680; homomeric WT TuGluCl3 receptor expressed in Xenopus laevis oocytes
T2 sequence (T1KFH0 36-542): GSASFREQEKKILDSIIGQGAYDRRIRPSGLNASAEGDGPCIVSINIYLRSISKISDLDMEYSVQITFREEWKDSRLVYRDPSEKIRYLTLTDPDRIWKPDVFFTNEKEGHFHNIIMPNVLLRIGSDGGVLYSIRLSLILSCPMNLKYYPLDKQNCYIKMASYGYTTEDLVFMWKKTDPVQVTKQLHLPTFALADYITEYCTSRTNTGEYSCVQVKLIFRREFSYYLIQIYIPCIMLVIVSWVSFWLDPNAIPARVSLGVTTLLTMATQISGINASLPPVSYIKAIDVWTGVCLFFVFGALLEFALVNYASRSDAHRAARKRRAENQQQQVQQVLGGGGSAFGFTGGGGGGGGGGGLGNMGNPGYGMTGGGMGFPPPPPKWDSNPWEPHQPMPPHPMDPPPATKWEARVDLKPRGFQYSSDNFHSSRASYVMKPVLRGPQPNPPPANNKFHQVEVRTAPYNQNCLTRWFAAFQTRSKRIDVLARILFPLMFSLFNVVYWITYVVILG
The test is described as above.

The target of test [3] is T2, TuGluCl3 (glutamate-gated chloride channel 3). The test can be described thus: two-electrode voltage clamp in Xenopus oocytes; agonist, also potentiates glutamate currents.

The structures appear in SMILES notation.

In general, EC50 refers to the concentration needed to bring the measured effect to its halfway point.

In the case of `N[C@@H](CCC(=O)O)C(=O)O` [L-glutamic acid], the “two-electrode voltage clamp in Xenopus oocytes at 500 μM (natural agonist)” value in test [1] and in test [2] was “both TuGluCl3 receptors showed clear responses to L-Glu” each time.

As to `CC(C)OC(=O)C(O)(c1ccc(Br)cc1)c1ccc(Br)cc1` [bromopropylate], the EC50 in test [3] is 3.23 µM.

For the compound `CCOC(=O)C(O)(c1ccc(Cl)cc1)c1ccc(Cl)cc1` [chlorobenzilate], the concentration for a half-maximal effect (EC50) in test [3] is 2.78 µM.

`OC(c1ccc(Cl)cc1)(c1ccc(Cl)cc1)C(Cl)(Cl)Cl` [dicofol, 2,2,2-trichloro-1,1-bis(4-chlorophenyl)ethanol]: the concentration giving a half-maximal response (EC50) in test [3] was found to be 3.58 µM.
